Columns and labels:
Assay type in all cases: cell-based
A-431 cell line = assay: MTT assay on A-431 cell line; settings: Homo sapiens, after 24 hours of treatment, epidermoid carcinoma cell line
Procedure: (§1) In this example, anti-cancer activity of benzo[4,5]imidazo[2,1-b]pyrimido[4,5-d][1,3]thiazine-2,4(3H)-dione and benzo[4,5]imidazo[2,1-b][1,3]thiazin-4-one was evaluated on A-431 cell line (an exemplary epidermoid carcinoma cell line), PC-3 cell line (an exemplary classical prostate cancer cell line), PANC-1 cell line (an exemplary pancreas ductal adenocarcinoma cell line)) by conducting an exemplary […] (MTT) assay. Cytotoxic effect of benzo[4,5]imidazo[2,1-b]pyrimido[4,5-d][1,3]thiazine-2,4(3H)-dione and benzo[4,5]imidazo[2,1-b][1,3]thiazin-4-one was also evaluated on Human Dermal Fibroblasts (HDF) cell line (an exemplary normal, human, adult cell line).
(§2) Meanwhile, the A-431, PC-3, and PANC-1 cell lines were tested by MTT assay after being cultured in DMSO with a concentration of about 1% (v/v) and Etoposide (an anti-cancer chemotherapy drug) as negative and positive controls, respectively. […] “IC50” may refer to a concentration of a compound that may inhibit cell growth and proliferation by 50%.

PANC-1 cell line = assay: MTT assay on PANC-1 cell line; settings: Homo sapiens, after 24 hours of treatment, pancreas ductal adenocarcinoma cell line
Procedure: as §1, §2

PC-3 cell line = assay: MTT assay on PC-3 cell line; settings: Homo sapiens, after 24 hours of treatment, prostate cancer cell line
Procedure: as §1, §2

[1] = system: Human Dermal Fibroblasts (HDF) cell line; assay: MTT assay, cytotoxic effect on Human Dermal Fibroblasts (HDF) cell line; settings: after 24 hours of treatment, normal human adult cell line
Procedure: as §1, §2

Cc1ccc(C2=C3C(=O)N(C)C(=O)N(C)C3n3c(nc4ccccc43)S2)cc1 (centres unmarked) showed an IC50 (A-431 cell line) of 25.3 µM, an IC50 (PANC-1 cell line) of 24.6 µM and an IC50 (PC-3 cell line) of 31.9 µM. The IC50 [1] was > 100 µM.

Work on COc1cc([C@@H]2c3cc4c(cc3[C@@H](O[C@@H]3O[C@@H]5CO[C@@H](C)O[C@H]5[C@H](O)[C@H]3O)[C@H]3COC(=O)[C@H]23)OCO4)cc(OC)c1O [Etoposide, reference compound] yielded an IC50 (A-431 cell line) of 27 µM, an IC50 (PANC-1 cell line) of 32.2 µM and an IC50 (PC-3 cell line) of 25.2 µM. For the same compound, the IC50 [1] was > 100 µM.

From patent US20230111768A1 (Razi University, priority 2021, published 2023)
